We go through 2 substances from patent US9995734B2, “Human T cell line assay for evaluating the immunologic identity of glatiramer acetate preparations” (Mylan Inc., priority 2013, dated 2018).

Assay [1] concerns Donor 1 COP T-Cell Lines. Kind of assay: IFN-γ ELISA, Donor 1 COP T-cell lines. Type of assay: cell-based, human. As to conditions: for IFN-γ (ELISA), mean: 10 μg/mL, autologous B-LCL; for IFN-γ production in response to GA: 222-2D8, 222-2E1, 222-2B11, 222-2C3, 222-2B8, 222-2G12, 222-2F12. The method, then:
Culture medium was removed from cultures prepared as for proliferation assay and utilized to measure cytokine production. In most cases culture medium was collected 18-24 hours after mixing T-cells, APC, and stimulating antigen. Cytokine production was measured by ELISA or bead assay. For measuring cytokine production, 100-150 μL culture medium (100 μL if culture was to be continued, otherwise 150 μL) was removed from each well. In some cases, the culture was continued 48 hours, for a total of 72 hours of culture, and the proliferative response measured.
IFN-γ concentration in culture supernatants was measured by a sandwich ELISA using two anti-IFN-γ monoclonal antibodies. Clone 2G1 was used for capture, and biotinylated antibody from clone B133.5 was used for detection (both from Endogen). Recombinant IFN-γ was used to construct a standard curve ranging from 1000 to 15 pg/mL.
Based on the increases in ATP level observed (i.e., a ratio of relative luminescence in wells with antigen to control wells without antigen of two or more), fifteen presumptive GA-specific T-cell lines in the original plate were moved to a 24-well plate at Day 26 and restimulated with 10 μg/mL Copaxone in the presence of autologous EBV-transformed B-LCL (5×10^5 per well, i.e., 2.5×10^5/mL). At Day 27 IL-2 was added. On Day 34, the fifteen presumptive lines were restimulated with 10 μg/mL GMA or 10 μg/mL COP in the presence of mitomycin-treated autologous B-LCL (4×10^4 per well; 2×10^5 per mL), or incubated with mitomycin-treated autologous B-LCL and no antigen. On Day 35 IL-2 was added to continued cultures. On Day 36 culture supernatant was collected from test cultures and IFN-γ production measured by ELISA (48 hours after restimulation). IFN-γ protein concentrations were determined using a TMB standard curve.
(In general: ELISA stands for enzyme-linked immunosorbent assay.)

Assay [2] concerns Donor 6 GMA-Reactive T-Cell Lines. Kind of assay: ATP proliferation assay, Donor 6 GMA-reactive T-cell lines. Format: cell-based, human. As to conditions: Day 35, GMA Lot 001 and COP 10 μg/mL.
Where [3] appears, read: 222-1G8, 48 hours, T-cells + B-LCL >1000.
The mark [4] stands for this setting: 222-1H12, 48 hours, T-cells + B-LCL >1000.
Setting [5] is: 222-2B8, 48 hours, T-cells + B-LCL 599.
The mark [6] stands for this setting: 222-2B11, 48 hours, T-cells + B-LCL 354.
The mark [7] stands for this setting: 222-2C3, 48 hours, T-cells + B-LCL 538.
Where [8] appears, read: 222-2D8, 48 hours after restimulation, T-cells + B-LCL 270.
The mark [9] stands for this setting: 222-2E1, 48 hours, T-cells + B-LCL 457.
Where [10] appears, read: 222-2F12, 48 hours, T-cells + B-LCL 295.
Setting [11] is: 222-2G12, 48 hours, T-cells + B-LCL 515.

Regarding glatiramer acetate [COP], the “IFN-γ (ELISA), mean” value is 700 pg/mL in assay [1] (222-1C5, 48 hours, T-cells + B-LCL 821, listed as Copaxone); 156 pg/mL in assay [1] (222-1F8, 48 hours, T-cells + B-LCL 120, listed as Copaxone); over 1000 pg/mL in assay [1] (setting [3]); over 1000 pg/mL in assay [1] (setting [4]); over 1000 pg/mL in assay [1] (setting [5]); over 1000 pg/mL in assay [1] (setting [6]). The “IFN-γ (ELISA), mean” value in assay [1] (222-2C1, 48 hours, T-cells + B-LCL 369, listed as Copaxone) was 417 pg/mL; in assay [1] (setting [7]), over 1000 pg/mL; in assay [1] (222-2C5, 48 hours, T-cells + B-LCL 325, listed as Copaxone), 273 pg/mL; in assay [1] (222-2D2, 48 hours, T-cells + B-LCL 68, listed as Copaxone), 133 pg/mL; in assay [1] (setting [8]) it was over 1000 pg/mL; in assay [1] (setting [9]), over 1000 pg/mL. Further, the “IFN-γ (ELISA), mean” value is on record as over 1000 pg/mL in assay [1] (setting [10]); 416 pg/mL in assay [1] (222-2G4, 48 hours, T-cells + B-LCL 280, listed as Copaxone); over 1000 pg/mL in assay [1] (setting [11]). Moreover, the “IFN-γ production in response to GA” value in assay [1] is “reacted”. Besides, the ATP proliferation assay in assay [2] (Cell line 224-B6-001) was 78357 RLU; in assay [2] (Cell line 224-B7-001), 20586 RLU; in assay [2] (Cell line 224-B11-001), 27861 RLU; in assay [2] (Cell line 224-C4-001), 52771 RLU; in assay [2] (Cell line 224-C11-001), 87933 RLU; in assay [2] (Cell line 224-D2-001), 26027 RLU. Also, the ATP proliferation assay in assay [2] (Cell line 224-D6-001) is 68767 RLU; in assay [2] (Cell line 224-E2-001) it was 233094 RLU; in assay [2] (Cell line 224-E7-001), 137556 RLU; in assay [2] (Cell line 224-F4-001) it was 114667 RLU; in assay [2] (Cell line 224-G2-001), 227257 RLU; in assay [2] (Cell line 224-G10-001), 229933 RLU. Moreover, in assay [2] (Cell line 224-G11-001), the ATP proliferation assay is given as 91466 RLU.

In the case of glatiramer acetate [GMA], the “IFN-γ (ELISA), mean” value is given as 776 pg/mL in assay [1] (222-1C5, 48 hours, T-cells + B-LCL 821); 169 pg/mL in assay [1] (222-1F8, 48 hours, T-cells + B-LCL 120); over 1000 pg/mL in assay [1] (setting [3]); over 1000 pg/mL in assay [1] (setting [4]); over 1000 pg/mL in assay [1] (setting [5]); over 1000 pg/mL in assay [1] (setting [6]). Moreover, the “IFN-γ (ELISA), mean” value in assay [1] (222-2C1, 48 hours, T-cells + B-LCL 369) is given as 392 pg/mL; in assay [1] (setting [7]) it was over 1000 pg/mL; in assay [1] (222-2C5, 48 hours, T-cells + B-LCL 325), 245 pg/mL; in assay [1] (222-2D2, 48 hours, T-cells + B-LCL 68), 131 pg/mL; in assay [1] (setting [8]), over 1000 pg/mL; in assay [1] (setting [9]), over 1000 pg/mL. Further, the “IFN-γ (ELISA), mean” value in assay [1] (setting [10]) is on record as over 1000 pg/mL; in assay [1] (222-2G4, 48 hours, T-cells + B-LCL 280) it was 438 pg/mL; in assay [1] (setting [11]) it was over 1000 pg/mL. For the same substance, in assay [1], the “IFN-γ production in response to GA” value is listed as “reacted”.
